Reference: PubChem BioAssay AID2305 (GlaxoSmithKline (GSK), 2010)

The compounds below were run on P. falciparum 3D7 growth, pLDH absorbance (assay: P. falciparum 3D7 growth inhibition, dose response, strain 3D7 (AID 2305)).
Work on `COc1ccc(CCNCCCCCCNCCc2ccc(Cl)c(Cl)c2)cc1OC` yielded an IC50 of 930 nM. Compound `NC(N)=NN=Cc1c2ccccc2c(Cl)c2ccc(Cl)cc12` has an IC50 of 230 nM. Compound `O=C(/C=C/c1ccc(Cl)c(Cl)c1)NCC1CCC(CN2CCC(c3c[nH]c4ccccc34)CC2)CC1` (centres undefined) has an IC50 of 360 nM. `O=C(c1ccco1)N1CCN(c2ccc([N+](=O)[O-])c(NC3CC3)c2)CC1` gave an IC50 of 750 nM. Work on `NCc1ccc(CNCc2ccc(-c3ccc(-c4nc5ccc(C(F)(F)F)cc5[nH]4)s3)cc2)cc1` yielded an IC50 of 160 nM. For `Cc1n[nH]c(C)c1C1CCN(CC2CCC(NC(=O)/C=C/c3ccc(Cl)c(Cl)c3)CC2)CC1` (centres undefined), the IC50 was 730 nM. In the case of `CCN(CC)Cc1cc(Nc2ccnc3cc(Cl)ccc23)ccc1O`, the IC50 is reported as 160 nM. In the case of `O=C(/C=C/c1ccsc1)NC1CCC(CN2CCC(c3c[nH]c4ccccc34)CC2)CC1` (centres undefined), the IC50 is reported as 1120 nM. For `N#Cc1ccc(NC(=O)Nc2ccc(OC(F)(F)F)cc2)cc1`, the IC50 was 820 nM. In the case of `FC(F)(F)c1ccc2nc(-c3cccc(-c4ccc(CNCC5CCCO5)cc4)c3)[nH]c2c1` (centres undefined), the IC50 is reported as 280 nM. `Cc1cc(N[C@@H](CC(C)C)C(=O)Nc2ccccc2)nc(NCCc2ccc(F)cc2)n1` gave an IC50 of 1090 nM. `CC1CCc2sc(-c3nnc(SC(C)C(=O)N4CCCC4)o3)cc2C1` (centres undefined) was tested, and the IC50 was 880 nM. `COc1ccc(-c2ccc(NC(=O)c3cccc(Cl)c3)c(F)c2)cc1CNC(C)C` was tested, and the IC50 was 890 nM. For `Cc1nc(N)nc(N)c1OCc1ccc(Cl)c(Cl)c1`, the IC50 was 130 nM. Work on `CCN(CC)CCCC(C)Nc1cc(C=Cc2ccccc2Cl)nc2cc(Cl)ccc12` (centres undefined) yielded an IC50 of 800 nM. Compound `CN(Cc1cccc(F)c1)C1CCN(c2cc(NC(=O)c3cccc(F)c3)ccn2)CC1` has an IC50 of 1160 nM. Compound `O=C(/C=C/c1ccc(Cl)c(Cl)c1)NCCCCCN1CCC(C(=O)Nc2cccc(Cl)c2)CC1` has an IC50 of 680 nM. In the case of `OCc1ccc(-c2cncc(Nc3cccc(Cl)c3)c2)cc1`, the IC50 is reported as 70 nM. In the case of `COc1ccc(Nc2nc(NC3CCN(C)CC3)cc(-c3ccc(OC)cc3)n2)cc1`, the IC50 is reported as 540 nM. `COc1ccc(C(=O)NCc2ccccc2-c2ccc(C(C)(C)C)cc2)cc1O` showed an IC50 of 100 nM. In the case of `COc1cc(Cc2cnc(N)nc2N)cc(OCCCCc2nn[nH]n2)c1OC`, the IC50 is reported as 290 nM. `COc1cc2nc(N3CCN(c4cc(C)ccc4C)CC3)nc(N)c2cc1OC` gave an IC50 of 850 nM. For `Cc1ccc(S(=O)(=O)N2CCN(C(=O)c3cc(-c4ccccc4)n[nH]3)CC2)cc1`, the IC50 was 600 nM. `CCc1cn2c3c(cc(C(=O)N[C@@H](Cc4ccccc4)[C@H](O)CNCC(C)C)cc13)N(C)S(=O)(=O)CC2` showed an IC50 of 40 nM. Compound `CN1CCN(c2cccc(-c3nnc(-c4ccc(OCC(=O)NCc5ccc(C(F)(F)F)cc5)c([N+](=O)[O-])c4)o3)c2)CC1` has an IC50 of 660 nM. `NCCCNc1ccnc2cc(Cl)ccc12` showed an IC50 of 300 nM. In the case of `O=C(Nc1ccc2c(c1)OCO2)c1cc(-c2cccnc2)nc2ccc(Cl)cc12`, the IC50 is reported as 520 nM. `COc1c(C2CCN(CCCCNC(=O)c3ccc(-c4ccc(Cl)cc4)cn3)CC2)ccc2c1CCCC2` showed an IC50 of 910 nM. For `C=CCn1c(Sc2ccc(C#N)c([N+](=O)[O-])c2)nnc1-c1ccc(Cl)cc1`, the IC50 was 670 nM. `Cc1ccc(N2C(N)=NC(N)=NC2c2ccccc2)cc1` (centres undefined) showed an IC50 of 60 nM. `COC(=O)C(=O)c1c(-c2ccccc2)c(-c2ccc(OC)c(OC)c2)c2c3cc(OC)c(OC)cc3ccn12` was tested, and the IC50 was 640 nM. In the case of `COCCNC(=O)C1CCN(C(c2ccc(Cl)cc2)c2ccc(Cl)cc2)CC1`, the IC50 is reported as 550 nM. With `Nc1ccnc(N2CCC(CCOc3cc(C(F)(F)F)nc4c(C(F)(F)F)cccc34)CC2)c1` the IC50 was 790 nM. `Cc1cc(=O)c(-c2cccc(Oc3ccc(Cl)cc3)c2)c(C)[nH]1` was tested, and the IC50 was 740 nM. `O=C(N[C@@H](CC1CCCCC1)C(=O)NC1CC1)c1ccc(O)c(-c2cccc(C(F)(F)F)c2)c1` was tested, and the IC50 was 770 nM. Compound `CCN(CC)S(=O)(=O)c1ccc(Cl)c(C(=O)Nc2ccc3nc(C)sc3c2)c1` has an IC50 of 800 nM. `COc1cc2nc(NCC3CCN(c4nc(N)c5cc(OC)c(OC)cc5n4)CC3)nc(N)c2cc1OC` gave an IC50 of 780 nM. `COc1cc(-c2nc(C(C)(C)CN)[nH]c2-c2ccncc2)ccc1Br` was tested, and the IC50 was 770 nM. `Cc1ccccc1C1CCN(C2CCC(NC(=O)C3=Cc4ccccc4OC3)CC2)CC1` (centres undefined) showed an IC50 of 930 nM. `Cc1cccc(CN2CCCC3(CCN(Cc4ccccc4O)C3)C2)c1` (centres undefined) was tested, and the IC50 was 800 nM. `CN(C)CCCOc1ccc(-c2nc(-c3ccc4c(c3)CCC4=NO)c(-c3ccncc3)[nH]2)cc1` was tested, and the IC50 was 830 nM. `CC1(C)C[C@@H]2C[C@@](C)(CN2C(=O)c2cc(C(C)(C)C)nn2Cc2ccccc2)C1` showed an IC50 of 1090 nM. Work on `CN(C)CCCN1CCN(Cc2ccc(-c3ccc(-c4nc5ccccc5[nH]4)s3)cc2)CC1` yielded an IC50 of 820 nM. For `CC(C)Nc1nc(NCCc2cnc[nH]2)nc(NCc2ccc(Cl)c(Cl)c2)n1`, the IC50 was 960 nM. `c1ccc2c(NCCCCCCNc3c4c(nc5ccccc35)CCCC4)c3c(nc2c1)CCCC3` gave an IC50 of 200 nM. For `Cc1cccc(-c2cccc(CNc3nc(NCCc4ccc(O)cc4)nc(N4CCNCC4)n3)c2)c1`, the IC50 was 1190 nM. Work on `COc1cc2nc(N3CCN(C(=O)c4cccc(I)c4)CC3)nc(N)c2cc1OC` yielded an IC50 of 1320 nM. In the case of `CCOc1ccc(-c2nonc2NC(=O)c2ccccc2)cc1OCC`, the IC50 is reported as 260 nM. With `CCN1CCC(N(Cc2ccc(-c3ccc(C(F)(F)F)cc3)cc2)C(=O)Cn2c(CCc3cccc(F)c3F)cc(=O)c3ccccc32)C1` (centres undefined) the IC50 was 1010 nM. With `O=C(/C=C/c1ccc(Cl)c(Cl)c1)Nc1cccc(CN2CCC(c3c[nH]c4ccc(O)cc34)CC2)c1` the IC50 was 940 nM. Work on `O=C(CC1CCCC1)N(CC1CCN(Cc2ccc(C(F)(F)F)cc2)CC1)c1ccc(N2CCOCC2)c(F)c1` yielded an IC50 of 430 nM. `Clc1ccc2c(N3CCCNCC3)ccnc2c1` gave an IC50 of 480 nM. With `CC1(CCCCN2CCC(c3c[nH]c4cnccc34)CC2)C(=O)Nc2cccc(Cl)c21` (centres undefined) the IC50 was 870 nM. In the case of `C[C@H](NC(=O)c1c(CN2CCC(N3CCCCC3=O)CC2)c(-c2cccs2)nc2ccccc12)C1CCCCC1`, the IC50 is reported as 900 nM. In the case of `COC[C@H]1CCCN1Cc1ccc(-c2ccc(-c3nc4ccccc4[nH]3)s2)cc1`, the IC50 is reported as 1000 nM. In the case of `CCCOc1ccc(C(=O)Nc2nonc2-c2ccc(OC)c(OC)c2)cc1`, the IC50 is reported as 990 nM. `O=C(Nc1cccc(N2CCC(NCc3cnn(-c4cccc(F)c4)c3)CC2)c1)c1ccncc1` showed an IC50 of 1390 nM. Compound `CCCN(Cc1nnc(-c2ccco2)o1)C(=O)C1CCCN(C(=O)c2ccc(Cl)cc2)C1` (centres undefined) has an IC50 of 520 nM. `OCC1CCN(Cc2ccc(-c3cccc(-c4nc5ccccc5[nH]4)c3)cc2)CC1` showed an IC50 of 810 nM. Work on `COc1ccc(CNC(=O)NC2CCN(c3ccnc(Nc4ccc(F)cc4)n3)CC2)cc1` yielded an IC50 of 1050 nM. `CN1CCCC1CCCOC(=O)c1ccc(N)cc1` (centres undefined) was tested, and the IC50 was 920 nM. `CC[C@H]1CN2CC[C@@H]1C[C@H]2[C@H](O)c1cc(N2CCC(C(N)=O)CC2)nc2ccc(OC)cc12` was tested, and the IC50 was 770 nM. Compound `O=C(Nc1cccc(-c2cccc(-c3nc4ccccc4[nH]3)c2)c1)c1ccoc1` has an IC50 of 740 nM. In the case of `Cc1cccc2[nH]c(-c3ccc(-c4cccc(CNCCNC(=O)c5ccnn5C)c4)s3)nc12`, the IC50 is reported as 220 nM. With `CCOC(=O)c1[nH]c(-c2cccnc2)nc1NC(=S)NCc1ccccc1` the IC50 was 710 nM. `Cc1cccc2[nH]c(-c3cccc(-c4ccc(C(=O)NCCc5ccc(O)c(=O)[nH]5)cc4)c3)nc12` showed an IC50 of 1190 nM. Compound `Cc1cccc(NC(=O)c2ccc(C(=O)NC3CCN(CC4CCCCC4)C3)cc2)c1` (centres undefined) has an IC50 of 920 nM. In the case of `CC(C)COc1ccc(Cl)cc1Cc1ccc(-c2nc3ccc(Br)cc3[nH]2)o1`, the IC50 is reported as 1400 nM. `Cc1cc(F)ccc1Nc1nc(N(C)c2ccccc2)c2cccc(OCCO)c2n1` gave an IC50 of 800 nM. In the case of `CNCCN(C)C(=O)Oc1c(Br)c(C)nc(C)c1-c1ccc(Oc2ccc(OC(F)(F)F)cc2)cc1`, the IC50 is reported as 110 nM. `CN(C)CCCOc1cccc(CCNCc2cccc(Oc3ccc(Cl)cc3)c2)c1` was tested, and the IC50 was 1010 nM. Compound `COc1cccc(NC(=O)c2cc([N+](=O)[O-])ccc2NC(=O)CN2CCc3ccccc3C2)c1` has an IC50 of 590 nM. With `CCOc1ccc(-c2noc(-c3c[nH]c4ccccc4c3=O)n2)cc1` the IC50 was 210 nM. For `CCCNCc1ccc(-c2ccc(CN(C(=O)c3nn(-c4ccccc4)nc3C)C3CC3)cc2)nc1`, the IC50 was 210 nM. For `Cc1cc(OCCCN2CCC(NS(=O)(=O)c3cccc(Br)c3)CC2)c2ccccc2n1`, the IC50 was 1110 nM. `O=C(Cc1ccccc1)NC(c1ccccc1)c1ccc2cccnc2c1O` (centres undefined) gave an IC50 of 950 nM. With `O=C(NCCc1cccc(Cl)c1Cl)c1cnc(N2CCN(c3ccncc3)CC2)c(Cl)c1` the IC50 was 700 nM. Work on `Nc1c(Cl)cc(C(O)CNCCCCCCCCCc2ccccn2)cc1Cl` (centres undefined) yielded an IC50 of 860 nM. Work on `O=S(=O)(c1cccc2cccnc12)N1CCN(C2CCCCC2)CC1` yielded an IC50 of 760 nM. `O=C(N[C@@H](Cc1ccccc1)[C@H](O)CNC1CCc2ccccc2C1)c1cc(C2CCCC2)cc(N2CCCC2=O)c1` (some centres undefined) was tested, and the IC50 was 160 nM. `CC(NC(=O)NC1CCC(CCN2CCCc3ccccc32)CC1)c1cccc2ccccc12` (centres undefined) gave an IC50 of 1020 nM. Work on `O=C(N[C@H](Cc1ccc(Cl)cc1)C(=O)N1CCN(c2ccnc3cc(Cl)ccc23)CC1)[C@H]1Cc2ccccc2CN1` yielded an IC50 of 420 nM. Work on `CN1CCN(CCCNCc2ccccc2-c2cccc(CNCc3ccc4c(c3)OCO4)c2)CC1` yielded an IC50 of 790 nM. In the case of `CC(=NNC(=S)Nc1ccccc1Cl)c1ccccn1`, the IC50 is reported as 80 nM. Work on `O=C(NCc1cccc(CN2CCOCC2)c1)c1cc(Br)cc(N2CCN(c3ccncc3)CC2)c1` yielded an IC50 of 860 nM. `N#Cc1cccc(CN2CCCN(c3ccc(NC(=O)c4cccs4)cc3)CC2)c1` gave an IC50 of 810 nM. With `C=CCC(C(=O)Nc1ccnc2ccc(OC)cc12)C1CCN(CCCCCCC)CC1` (centres undefined) the IC50 was 240 nM. In the case of `COc1ccc2ncc(Cl)c(N3CCC(CCNCc4ccc5c(n4)NC(=O)CS5)CC3)c2c1`, the IC50 is reported as 960 nM. With `COc1ccc(Nc2nccc(NCC(O)c3ccc(C(F)(F)F)cc3)n2)cc1` (centres undefined) the IC50 was 550 nM. `C[C@H](NC(=O)C1CCCC1)C(=O)Nc1ccc(-c2ccc(-c3nc4ccc(C(F)(F)F)cc4[nH]3)cc2)cc1` was tested, and the IC50 was 270 nM. Compound `O=C(N[C@@H](Cc1ccccc1)C(=O)O)c1cc(-c2ccc(F)cc2)no1` (tested in a mixture with another compound) has an IC50 of 800 nM. Work on `CCOc1c(CNCCCNc2cc(=O)c3ccccc3[nH]2)cc(I)cc1C(C)(C)C` yielded an IC50 of 700 nM. Compound `Cc1ccccc1C(=O)NC(NC(=S)Nc1ccc([N+](=O)[O-])cc1)C(Cl)(Cl)Cl` (centres undefined) has an IC50 of 740 nM. With `CCC(C)(C)C1CCc2[nH]c3ccccc3c(=O)c2C1` (centres undefined) the IC50 was 380 nM. For `O=C(Nc1ccc(OC2CCN(Cc3ccsc3)C2)c(Cl)c1)c1ccc2ncccc2c1` (centres undefined), the IC50 was 970 nM. Compound `O=C(Nc1cccc(-c2cccc(-c3nc4ccc(F)cc4[nH]3)c2)c1)c1csnn1` has an IC50 of 790 nM. Compound `CC(C)OCCCNC(=O)c1nc(-c2cccc(C(F)(F)F)c2)sc1C(C)C` has an IC50 of 1160 nM. For `Cc1ccn2cc(-c3ccc(NC(=O)c4ccc(Br)o4)cc3)nc2c1`, the IC50 was 740 nM. In the case of `COc1ccc(F)cc1-c1ccccc1CNC(=O)CN(C)S(=O)(=O)c1cc(C)cc(Cl)c1C`, the IC50 is reported as 660 nM.
